# Test results from patent US20180011102A1, “THE PROTEIN KINASE ACTIVITY OF PHOSPHOGLYCERATE KINASE 1 AS A TARGET FOR CANCER TREATMENT AND DIAGNOSIS” (Board of Regents, The University of Texas System, priority 2015, published 2018).
# Tests used:
# ERK1/2 = experiment: Immunoblotting of hypoxia-induced ERK1/2 phosphorylation/activation in U87 cells; assay type: cell-based, human
# Protocol: (§1) FIGS. 10A-I. Mitochondrial Translocation of PGK1 is depended on ERK1/2-mediated PGK1 Phosphorylation. FIG. 10A. […] Immunoblotting analyses were performed with the indicated antibodies. FIG. 10B. […] Immunoblotting analyses were performed with the indicated antibodies. FIG. 10C. […] Immunofluorescence analyses were carried out using an anti-PGK1 antibody, MitoTracker, and DAPI. FIG. 10D. U87 cells stably transfected with a vector or Flag-ERK2 K52R were treated with or without hypoxia for 6 h. Mitochondria fractions and total cell lysates were prepared. FIG. 10E. U87 cells were stably transfected with or without vectors expressing HA-MEK1 Q56P with the indicated Flag-ERK2 proteins. Mitochondria fractions and total cell lysates were prepared. Immunoblotting analyses were performed with the indicated antibodies. FIG. 10F. U87 cells were treated with or without hypoxia for 6 h. […] FIG. 10G. Immobilized GST or GST-PGK1 protein was incubated with purified recombinant His-ERK2. Immunoblotting analyses were performed with the indicated antibodies. FIG. 10H. […] Immunoblotting analyses were performed with the indicated antibodies. FIG. 10I. […] Immunoblotting analyses were performed with the indicated antibodies.
# FIGS. 11A-J. ERK1/2-mediated PGK1 S203 Phosphorylation Is Required for Mitochondrial Translocation of PGK1. […] The images were quantified by scanning densitometry. […]
# PGK1 [1] = experiment: Hypoxia-induced mitochondrial translocation of PGK1 (mitochondrial fractionation, immunoblotting, immunofluorescence); assay type: cell-based, human
# Protocol: (§2) FIG. 1B. […] FIG. 1C. […] Arrows indicate representative staining of mitochondrial PGK1. Dashed circles indicate mitochondria. FIG. 1D. […] Tubulin was used as a cytosolic protein marker. FIG. 1E. […] Mitochondria fractions and total cell lysates were prepared. FIG. 1F. […] Mitochondria fractions and total cell lysates were prepared. FIG. 1G. […] FIG. 1H. […] FIG. 1I. […] Mitochondrial fractions and total cell lysates were prepared.
# FIGS. 9A-E. Hypoxia Induces Mitochondrial Translocation of PGK1. FIG. 9A. Total cell lysate, cytosolic, and mitochondrial fractions were prepared from U87 and U251 cells stimulated with or without hypoxia for 6 h. Immunoblotting analyses were performed with the indicated antibodies. Hypoxia-induced HIF1α expression (left panel) was a control for hypoxic stimulation. WCL: whole-cell lysate; Cyto: cytosol; Mito: mitochondria. WB, Western blot. FIG. 9B. Cytosolic and mitochondrial fractions were prepared from U87 and U251 cells stimulated with hypoxia for 6 h. Immunoblotting analyses of equal percentages of cytosolic and mitochondrial fraction were performed with the indicated antibodies. WCL: whole-cell lysate; Cyto: cytosol; Mito: mitochondria. Immunoblotting analyses were performed with the indicated antibodies. The images were quantified by scanning densitometry. FIG. 9C. U87 cells transfected with HIF1α siRNA or a scrambled siRNA before hypoxia stimulation for 6 h. […]
# PGK1 S203 = experiment: Hypoxia-induced PGK1 S203 phosphorylation in U87 cells (streptavidin pull-down / immunoblotting); assay type: cell-based, human
# Protocol: as §2
# FIGS. 11A-J. ERK1/2-mediated PGK1 S203 Phosphorylation Is Required for Mitochondrial Translocation of PGK1. Immunofluorescence, immunoprecipitation, and immunoblotting analyses were performed with the indicated antibodies. FIG. 11A. U87 cells stimulated with or without hypoxia for 6 h were stained with the indicated antibody, MitoTracker, and DAPI. FIG. 11B. […] FIG. 11C. U87 cells were stably transfected with or without vectors expressing HA-MEK1 Q56P with the indicated Flag-ERK2 proteins. Total cell lysates were prepared. FIG. 11D. […] FIG. 11E. Anti-PGK1 pS203 antibody was used to deplete the phosphorylated PGK1 from total cell lysates prepared from U87 cells treated with or without hypoxia for 6 h. The images were quantified by scanning densitometry. […] FIG. 11H. […] FIG. 11I. […] Mitochondria fractions and total cell lysates were prepared. FIG. 11J.
# Streptavidin or glutathione agarose beads were incubated with cell lysate (1 mg/ml) or purified protein for 12 h. […]
# EGFR = experiment: Immunoblotting of hypoxia-induced EGFR phosphorylation in U87 cells; assay type: cell-based, human; conditions: AG1478 100 nM for 30 min before hypoxia 6 h
# PGK1 [2] = experiment: Determining KM of PGK1 (PGK1-dependent PDHK phosphorylation, Lineweaver-Burke plot); assay type: biochemical, human; conditions: purified recombinant WT PGK1, Sumo-PDHK1, 37° C., means ±SD of three experiments; read-out: Km of ATP for PGK1-dependent PDHK phosphorylation
# Protocol: FIGS. 14A-P. Mitochondrial PGK1 Phosphorylates PDHK1 at T338. FIG. 14A. […] Immunoblotting analyses were performed with the indicated antibodies. FIG. 14B. U87 cells (left panel) or U87/EGFR (right panel) cells expressing PGK1 shRNA with or without reconstituted expression of WT rPGK1 and the indicated mutants were stimulated with or without hypoxia for 6 h (left panel) or EGF (100 ng/ml) (right panel) for 6 h. These cells were incubated with [1-^14C]-pyruvate for 2 h. [1-^14C]CO2 production rates were measured. FIG. 14C. U87 cells expressing SFB-PDHK1, SFB-PDHK2, SFB-PDHK3, or SFB-PDHK4 were stimulated with or without hypoxia for 6 h. Mitochondrial fractions of these cells were prepared. […] ATP concentrations in mitoplast isolated from U87 or U251 cells treated with or without hypoxia for 6 h were measured. […] The glycolytic activities of bacterially purified WT PGK1, PGK1 T378P, PGK1 S203A, and PGK1 R39/K41A were measured. […]
# Purified recombinant WT PGK1 (0.2 ng) was incubated in 100 μl of reaction buffer (50 mM Tris-HCl [pH 7.5], 600 ng/μl Sumo-PDHK1, 5 mM MgSO4, 1 mM Na3VO4, 1 mM DTT, 1.8 mM phosphorenolpyruvate, 7 units pyruvate kinase, 10 units lactic dehydrogenase, 0.01 mM NADH) with indicated ATP concentration at 37° C. in 96-well plate and were read by multidetection microplate readers (BMG LABTECH, Cary, N.C.) at 339 nm in kinetic mode for 5 min. […]
# U87 cells = experiment: Cell proliferation assay under hypoxia; assay type: cell-based, human; conditions: PGK1-depleted U87 cells reconstituted with WT PGK1 or PGK1 R39/K41A, DTT 1 mM, hypoxia 4 days
# Protocol: FIGS. 17A-H. Mitochondrial PGK1-Dependent PDHK1 Phosphorylation Promotes Cell Proliferation and Brain Tumorigenesis. FIGS. 17A-C. Data represent the means ±SD of three independent experiments. FIG. 17A. A total of 2×10^5 U251 cells with or without PGK1 shRNA (left panel) or PDHK1 shRNA (right panel) expression and with or without reconstituted expression of their WT counterparts and the indicated mutants were plated for 4 days under hypoxic conditions. The cells were then collected and counted. FIG. 17B. A total of 2×10^5 endogenous PGK1-depleted U87 cells with reconstituted expression of WT rPGK1 or rPGK1 R39/K41A were plated and treated with or without DTT (1 mM) during hypoxia for 4 days. The cells were then collected and counted. FIG. 17C. Mitochondria fractions and total cell lysates from endogenous PGK1-depleted U87/EGFRvIII cells with reconstituted expression of WT rPGK1 or rPGK1 S203A were prepared. […] The indicated U87/EGFRvIII cells (2×10^5) were plated for 3 days and were counted (right panel). […] The cells were then collected and counted. #p<0.05. […] Tumor volume was calculated using length a and width b: V=ab^2/2. […] Ki67-positive cells were quantified in 10 microscope fields. […] Apoptotic cells were quantified in 10 microscope fields.
# A total of […] cells were plated and counted at 4 days after seeding in DMEM with 10% dialyzed bovine calf serum during hypoxia. […]
# MAPK/APK2 = experiment: Immunoblotting of hypoxia-induced MAPK/APK2 phosphorylation in U87 cells; assay type: cell-based, human; conditions: pretreated with SB203580 10 μM for 30 min, hypoxia 6 h
# Protocol: as §1
# PGK1 [3] = conditions: U87/EGFR cells, U0126 20 μM for 30 min, EGF 100 ng/ml 6 h
# Protocol: EGFR-overxpressed U87 (U87/EGFR) cells pretreated with U0126 (20 μM) for 30 min were stimulated with or without EGF (100 ng/ml) for 6 h. Mitochondria fractions and total cell lysates were prepared.
# U87, U87/EGFR, and U251 human GBM cells, BxPC-3 human pancreatic cancer cells, CHL1 human melanoma cells, and mouse embryo fibroblast (MEF) cells were maintained in Dulbecco's modified Eagle's medium (DMEM) supplemented with 10% dialyzed bovine calf serum without pyruvate (HyClone, Logan, Utah). […] For EGF treatments, cell cultures were made quiescent by growing them to confluence, and the medium was replaced with fresh medium containing 0.5% serum for 1 day. EGF at a final concentration of 100 ng/ml was used for cell stimulation.
# Mitochondrial and cytosolic fractions were isolated using a mitochondria/cytosol fractionation kit from BioVision (Mountain View, Calif.). Mitochondrial proteins and cytosolic proteins were used in immunoblotting analyses.
# PIN1 and PGK1 = conditions: U87 cells, U0126 20 μM for 30 min before hypoxia 6 h
# Protocol: FIGS. 2A-F and H-I. Immunoblotting and immunoprecipitation analyses were carried out using antibodies against the indicated proteins. FIG. 2A U87 cells were pretreated with or without U0126 (20 μM) for 30 min before hypoxic stimulation for 6 h. […] U87 cells were treated with or without hypoxic stimulation for 6 h. A GST pull-down assay with the indicted GST-proteins was performed. […] U87 cells expressing the indicated PGK1 proteins were treated with or without hypoxic stimulation for 6 h.
# [4] = U87 cells, AG1478 100 nM for 30 min before hypoxia 6 h
compound,measurement,setting,value
COc1cc2ncnc(Nc3cccc(Cl)c3)c2cc1OC [AG1478],hypoxia-induced ERK activation,ERK1/2; AG1478 100 nM for 30 min before hypoxia 6 h,blocked
same,hypoxia-induced mitochondrial translocation of PGK1,PGK1 [1]; [4],blocked
same,hypoxia-induced phosphorylation of PGK1,PGK1 S203; [4],blocked
same,hypoxia-induced EGFR phosphorylation,EGFR,blocked
"Nc1ncnc2c1ncn2[C@@H]1O[C@H](COP(=O)(O)OP(=O)(O)OP(=O)(O)O)[C@@H](O)[C@H]1O [ATP, adenosine triphosphate]",Km,PGK1 [2],560 ± 53 µM
O[C@@H](CS)[C@@H](O)CS [DTT],hypoxia-induced growth suppression,U87 cells,partially rescued
C[S+]([O-])c1ccc(-c2nc(-c3ccncc3)c(-c3ccc(F)cc3)[nH]2)cc1 (stereo not drawn) [SB203580],hypoxia-induced phosphorylation of MAPK/APK2,MAPK/APK2,blocked
N#CC(=C(/N)Sc1ccccc1N)/C(C#N)=C(\N)Sc1ccccc1N [U0126],hypoxia-induced phosphorylation of ERK1/2,"ERK1/2; pretreated with U0126 20 μM for 30 min, hypoxia 6 h",blocked
same,hypoxia-induced mitochondrial translocation of PGK1,"PGK1 [1]; U87 and U251 cells, U0126 20 μM for 30 min before hypoxia 6 h",notably reduced
same,hypoxia-induced PGK1 S203 phosphorylation,"PGK1 S203; U87 cells expressing SFB-tagged PGK1, U0126 20 μM or SP600125 25 μM for 30 min before hypoxia 6 h",abolished
same,EGF-induced mitochondrial translocation of PGK1,PGK1 [3],blocked
same,hypoxia-increased interaction between endogenous PIN1 and PGK1,PIN1 and PGK1,blocked
